We go through two compounds from ChEMBL document CHEMBL4270669 (J Med Chem, 2018).

Data set [1] relates to SK-OV-3. In words: Induction of cell cycle arrest in human SKOV3 cells assessed as decrease in cell levels at G2/M phase at 2 uM after 24 hrs by Hoechst33342-staining based FACS analysis. In kind it is functional.
The subject of data set [2] is SK-OV-3. Put plainly: Antiproliferative activity against human SKOV3 cells at 10 uM after 72 hrs by ATPlite based assay. Type of data set: functional, cell-based.
Data set [3] relates to A2058. In words: Induction of cell cycle arrest in human A2058 cells assessed as accumulation at G1 phase at 5 uM after 24 hrs by Hoechst33342-staining based FACS analysis. Type of data set: functional.
The subject of data set [4] is A2058. Put plainly: Antiproliferative activity against human A2058 cells at 10 uM after 72 hrs by ATPlite based assay. In kind it is functional, cell-based.
The test system of data set [5] is SK-OV-3. Put plainly: Induction of cell cycle arrest in human SKOV3 cells assessed as accumulation at G1 phase at 2 uM after 24 hrs by Hoechst33342-staining based FACS analysis. In kind it is functional.
Data set [6] deals with A2058. Put plainly: Induction of cell cycle arrest in human A2058 cells assessed as decrease in cell levels at G2/M phase at 5 uM after 24 hrs by Hoechst33342-staining based FACS analysis. In kind it is functional.
For data set [7], the system named is SK-OV-3. In words: Induction of cell cycle arrest in human SKOV3 cells assessed as decrease in cell levels at S phase at 2 uM after 24 hrs by Hoechst33342-staining based FACS analysis. In kind it is functional.
Data set [8] relates to A2058. Put plainly: Induction of cell cycle arrest in human A2058 cells assessed as decrease in cell levels at S phase at 5 uM after 24 hrs by Hoechst33342-staining based FACS analysis. Type of data set: functional.
Data set [9] deals with Phosphatidylinositol 4-kinase beta (Homo sapiens, UniProt Q9UBF8).
Phosphatidylinositol 4-kinase beta, sequence (Q9UBF8 whole entry): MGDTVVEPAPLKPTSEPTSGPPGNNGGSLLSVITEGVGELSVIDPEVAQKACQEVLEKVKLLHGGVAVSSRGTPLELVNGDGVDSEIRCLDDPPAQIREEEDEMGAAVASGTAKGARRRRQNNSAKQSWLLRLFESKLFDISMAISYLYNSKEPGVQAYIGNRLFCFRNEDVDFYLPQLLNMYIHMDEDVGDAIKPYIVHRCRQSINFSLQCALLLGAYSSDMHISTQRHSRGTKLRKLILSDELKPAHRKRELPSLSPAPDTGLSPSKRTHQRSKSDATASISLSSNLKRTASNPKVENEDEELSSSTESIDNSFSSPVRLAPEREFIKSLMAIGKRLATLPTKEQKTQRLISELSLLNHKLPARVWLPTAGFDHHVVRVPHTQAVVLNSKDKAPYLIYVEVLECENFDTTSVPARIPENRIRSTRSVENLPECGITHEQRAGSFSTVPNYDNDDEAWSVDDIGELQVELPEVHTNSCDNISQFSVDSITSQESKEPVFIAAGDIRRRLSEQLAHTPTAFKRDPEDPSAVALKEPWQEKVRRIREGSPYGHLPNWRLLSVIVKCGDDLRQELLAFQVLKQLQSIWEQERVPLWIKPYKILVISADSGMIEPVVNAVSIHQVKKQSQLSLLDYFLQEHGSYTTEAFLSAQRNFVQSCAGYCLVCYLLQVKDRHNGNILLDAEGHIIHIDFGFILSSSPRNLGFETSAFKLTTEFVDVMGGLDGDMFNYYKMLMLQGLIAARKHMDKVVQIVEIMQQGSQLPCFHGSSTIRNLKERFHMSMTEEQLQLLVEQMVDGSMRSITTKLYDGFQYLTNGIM
Description: Inhibition of human PI4Kbeta (1 to 828 residues) expressed in mammalian expression system by KINOMEscan assay
For data set [10], the target named is Serine/threonine-protein kinase mTOR (Homo sapiens, UniProt P42345).
Description: Inhibition of human mTOR (1382 to 2549 residues) expressed in mammalian expression system by KINOMEscan assay
Data set [11] has as its target Phosphatidylinositol 4,5-bisphosphate 3-kinase catalytic subunit beta isoform (Homo sapiens, UniProt P42338).
Description: Inhibition of human PI3Kbeta (118 to 1070 residues) expressed in mammalian expression system by KINOMEscan assay
Another data set relates to Mus musculus. Put plainly: Increase in insulin levels in C57BL/6JRj mouse plasma at 50 mg/kg, po administered as single dose. Type of data set: functional, organism-based.
In data set [12] the target is Phosphatidylinositol 3-kinase catalytic subunit type 3 (Homo sapiens, UniProt Q8NEB9). In words: Inhibition of human VPS34 (282 to 879 residues) expressed in mammalian expression system by KINOMEscan assay.
Phosphatidylinositol 3-kinase catalytic subunit type 3, sequence (Q8NEB9 whole entry, the tested form may be a part, canonical isoform): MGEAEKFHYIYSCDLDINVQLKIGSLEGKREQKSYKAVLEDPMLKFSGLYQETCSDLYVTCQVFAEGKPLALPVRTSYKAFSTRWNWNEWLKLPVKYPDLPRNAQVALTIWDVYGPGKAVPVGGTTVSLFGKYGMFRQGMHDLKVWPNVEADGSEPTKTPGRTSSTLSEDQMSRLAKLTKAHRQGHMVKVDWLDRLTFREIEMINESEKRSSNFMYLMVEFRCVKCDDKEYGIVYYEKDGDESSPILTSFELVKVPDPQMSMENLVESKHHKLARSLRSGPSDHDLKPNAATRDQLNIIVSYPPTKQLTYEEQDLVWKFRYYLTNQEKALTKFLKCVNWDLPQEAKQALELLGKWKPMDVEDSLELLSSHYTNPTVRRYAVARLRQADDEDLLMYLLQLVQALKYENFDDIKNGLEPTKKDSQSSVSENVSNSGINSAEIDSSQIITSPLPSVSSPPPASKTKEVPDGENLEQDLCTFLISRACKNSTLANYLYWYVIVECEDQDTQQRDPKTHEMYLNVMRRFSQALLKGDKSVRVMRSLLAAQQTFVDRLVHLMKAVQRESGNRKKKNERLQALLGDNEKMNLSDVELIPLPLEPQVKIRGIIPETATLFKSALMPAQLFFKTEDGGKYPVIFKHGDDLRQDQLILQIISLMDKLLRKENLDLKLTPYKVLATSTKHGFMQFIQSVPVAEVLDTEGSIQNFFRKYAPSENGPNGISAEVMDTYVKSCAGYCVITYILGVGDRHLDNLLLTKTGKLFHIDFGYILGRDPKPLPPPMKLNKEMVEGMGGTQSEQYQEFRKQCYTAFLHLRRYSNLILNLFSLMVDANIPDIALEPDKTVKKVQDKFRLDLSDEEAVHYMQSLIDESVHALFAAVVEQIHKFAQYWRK
The target of data set [13] is Phosphatidylinositol 4,5-bisphosphate 3-kinase catalytic subunit gamma isoform (Homo sapiens, UniProt P48736).
Phosphatidylinositol 4,5-bisphosphate 3-kinase catalytic subunit gamma isoform, sequence (P48736 whole entry, canonical isoform): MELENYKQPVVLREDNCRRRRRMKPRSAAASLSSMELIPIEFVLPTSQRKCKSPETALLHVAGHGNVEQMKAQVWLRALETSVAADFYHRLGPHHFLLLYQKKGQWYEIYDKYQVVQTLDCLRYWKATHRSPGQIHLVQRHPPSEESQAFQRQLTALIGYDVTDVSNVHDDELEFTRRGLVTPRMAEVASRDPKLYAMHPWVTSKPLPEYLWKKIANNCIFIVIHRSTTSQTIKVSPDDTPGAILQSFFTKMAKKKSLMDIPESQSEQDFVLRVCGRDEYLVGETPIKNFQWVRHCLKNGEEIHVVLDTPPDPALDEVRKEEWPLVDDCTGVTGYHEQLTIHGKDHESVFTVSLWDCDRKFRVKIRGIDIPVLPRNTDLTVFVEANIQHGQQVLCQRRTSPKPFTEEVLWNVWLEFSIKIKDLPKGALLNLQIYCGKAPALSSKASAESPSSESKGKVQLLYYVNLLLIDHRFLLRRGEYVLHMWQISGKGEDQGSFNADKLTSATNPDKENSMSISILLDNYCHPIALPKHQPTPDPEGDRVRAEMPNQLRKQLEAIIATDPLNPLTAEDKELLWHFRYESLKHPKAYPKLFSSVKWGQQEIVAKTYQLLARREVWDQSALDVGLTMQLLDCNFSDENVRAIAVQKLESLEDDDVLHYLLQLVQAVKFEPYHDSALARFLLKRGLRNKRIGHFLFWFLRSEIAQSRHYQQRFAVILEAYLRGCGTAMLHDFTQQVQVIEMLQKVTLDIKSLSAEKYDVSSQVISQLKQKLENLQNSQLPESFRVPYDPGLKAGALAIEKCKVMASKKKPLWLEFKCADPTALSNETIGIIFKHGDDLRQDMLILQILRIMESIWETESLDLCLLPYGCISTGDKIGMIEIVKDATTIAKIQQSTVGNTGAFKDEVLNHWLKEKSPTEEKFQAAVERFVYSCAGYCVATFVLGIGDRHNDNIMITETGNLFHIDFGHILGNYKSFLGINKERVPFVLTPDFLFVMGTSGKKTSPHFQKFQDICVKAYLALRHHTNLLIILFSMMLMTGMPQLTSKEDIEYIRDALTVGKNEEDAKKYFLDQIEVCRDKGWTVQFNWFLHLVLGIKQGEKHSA
Description: Inhibition of human PI3Kgamma (144 to 1102 residues) expressed in mammalian expression system by KINOMEscan assay
The next data set relates to Rattus norvegicus. In words: Increase in insulin levels in Sprague-Dawley rat plasma at 10 mg/kg, po administered as single dose. In kind it is functional, organism-based.
Data set [14] deals with T1, Phosphatidylinositol 4,5-bisphosphate 3-kinase catalytic subunit delta isoform (Homo sapiens, UniProt O00329).
T1 sequence (O00329 whole entry): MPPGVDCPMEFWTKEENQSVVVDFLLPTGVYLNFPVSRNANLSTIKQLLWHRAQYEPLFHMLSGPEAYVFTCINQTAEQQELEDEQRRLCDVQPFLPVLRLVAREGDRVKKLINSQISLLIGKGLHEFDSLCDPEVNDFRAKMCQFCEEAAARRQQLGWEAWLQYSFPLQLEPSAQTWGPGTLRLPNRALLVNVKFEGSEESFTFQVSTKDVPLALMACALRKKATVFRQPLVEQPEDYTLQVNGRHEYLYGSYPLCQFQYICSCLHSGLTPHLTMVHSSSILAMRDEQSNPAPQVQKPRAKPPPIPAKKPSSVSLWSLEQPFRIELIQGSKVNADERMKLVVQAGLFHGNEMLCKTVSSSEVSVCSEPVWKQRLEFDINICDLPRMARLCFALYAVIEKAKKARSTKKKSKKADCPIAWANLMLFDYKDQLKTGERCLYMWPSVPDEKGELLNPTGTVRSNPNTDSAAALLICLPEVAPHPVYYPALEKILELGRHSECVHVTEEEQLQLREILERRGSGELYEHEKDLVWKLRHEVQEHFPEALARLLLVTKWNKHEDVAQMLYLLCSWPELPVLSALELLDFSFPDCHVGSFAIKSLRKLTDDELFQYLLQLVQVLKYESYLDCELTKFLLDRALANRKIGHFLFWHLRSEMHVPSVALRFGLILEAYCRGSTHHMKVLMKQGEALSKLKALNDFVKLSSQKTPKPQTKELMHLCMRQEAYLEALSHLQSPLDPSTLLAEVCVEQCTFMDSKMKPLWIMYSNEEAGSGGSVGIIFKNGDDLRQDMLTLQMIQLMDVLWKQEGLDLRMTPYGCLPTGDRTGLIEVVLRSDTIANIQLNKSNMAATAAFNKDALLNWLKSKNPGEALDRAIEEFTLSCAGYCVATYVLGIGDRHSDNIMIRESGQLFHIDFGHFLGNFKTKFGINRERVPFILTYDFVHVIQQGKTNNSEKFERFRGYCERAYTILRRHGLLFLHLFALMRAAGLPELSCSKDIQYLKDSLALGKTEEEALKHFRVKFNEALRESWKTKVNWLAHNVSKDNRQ
Description: Inhibition of human PI3Kdelta (108 to 1044 residues) expressed in mammalian expression system by KINOMEscan assay

Data set [15] deals with Phosphatidylinositol 4,5-bisphosphate 3-kinase catalytic subunit alpha isoform (Homo sapiens, UniProt P42336).
Phosphatidylinositol 4,5-bisphosphate 3-kinase catalytic subunit alpha isoform, sequence (P42336 whole entry, canonical isoform): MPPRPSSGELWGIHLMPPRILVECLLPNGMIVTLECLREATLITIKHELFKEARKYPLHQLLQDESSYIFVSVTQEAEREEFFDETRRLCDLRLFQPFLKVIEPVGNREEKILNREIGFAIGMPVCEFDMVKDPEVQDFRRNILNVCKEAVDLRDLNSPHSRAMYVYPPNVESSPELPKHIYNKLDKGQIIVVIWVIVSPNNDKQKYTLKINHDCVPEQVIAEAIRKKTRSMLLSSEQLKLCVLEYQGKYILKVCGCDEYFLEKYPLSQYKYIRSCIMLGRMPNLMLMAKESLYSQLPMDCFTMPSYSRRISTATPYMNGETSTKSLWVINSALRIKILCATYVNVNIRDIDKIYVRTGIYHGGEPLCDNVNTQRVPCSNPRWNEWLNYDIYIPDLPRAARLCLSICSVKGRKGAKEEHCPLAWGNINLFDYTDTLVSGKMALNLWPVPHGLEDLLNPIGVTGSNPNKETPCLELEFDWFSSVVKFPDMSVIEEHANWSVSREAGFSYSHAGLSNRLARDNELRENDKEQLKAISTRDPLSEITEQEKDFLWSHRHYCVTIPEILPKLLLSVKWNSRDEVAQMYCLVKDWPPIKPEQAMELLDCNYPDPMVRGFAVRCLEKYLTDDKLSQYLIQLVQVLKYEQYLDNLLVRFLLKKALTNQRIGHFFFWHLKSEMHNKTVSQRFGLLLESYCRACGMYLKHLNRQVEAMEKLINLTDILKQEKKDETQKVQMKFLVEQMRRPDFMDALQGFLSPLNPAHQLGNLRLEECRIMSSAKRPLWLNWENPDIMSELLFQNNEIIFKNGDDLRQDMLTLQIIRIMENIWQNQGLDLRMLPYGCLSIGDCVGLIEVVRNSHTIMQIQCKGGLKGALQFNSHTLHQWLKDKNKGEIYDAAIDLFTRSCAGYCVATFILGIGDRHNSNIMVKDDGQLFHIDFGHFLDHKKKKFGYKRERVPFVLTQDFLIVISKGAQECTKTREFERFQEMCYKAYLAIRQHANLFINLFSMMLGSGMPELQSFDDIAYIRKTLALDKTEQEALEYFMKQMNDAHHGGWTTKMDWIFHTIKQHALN
Description: Inhibition of human PI3Kalpha (108 to 1068 residues) expressed in mammalian expression system by KINOMEscan assay
Data set [16] is described as follows: Drug uptake in Sprague-Dawley rat brain at 10 mg/kg, po administered as single dose after 4 hrs. The conditions noted are these: read-out: Drug uptake. Type of data set: ADME, organism-based.
Data set [17] is described as follows: Ratio of drug level in Sprague-Dawley rat brain to plasma at 10 mg/kg, po administered as single dose. Type of data set: ADME, organism-based. Conditions: read-out: BPR.

Active and inactive are the calls of the source. The rule behind the calls is not given here. Where only a bound is given, the exact number is not on record here.

Phosphatidylinositol 4,5-bisphosphate 3-kinase catalytic subunit beta isoform, sequence (P42338 whole entry, canonical isoform): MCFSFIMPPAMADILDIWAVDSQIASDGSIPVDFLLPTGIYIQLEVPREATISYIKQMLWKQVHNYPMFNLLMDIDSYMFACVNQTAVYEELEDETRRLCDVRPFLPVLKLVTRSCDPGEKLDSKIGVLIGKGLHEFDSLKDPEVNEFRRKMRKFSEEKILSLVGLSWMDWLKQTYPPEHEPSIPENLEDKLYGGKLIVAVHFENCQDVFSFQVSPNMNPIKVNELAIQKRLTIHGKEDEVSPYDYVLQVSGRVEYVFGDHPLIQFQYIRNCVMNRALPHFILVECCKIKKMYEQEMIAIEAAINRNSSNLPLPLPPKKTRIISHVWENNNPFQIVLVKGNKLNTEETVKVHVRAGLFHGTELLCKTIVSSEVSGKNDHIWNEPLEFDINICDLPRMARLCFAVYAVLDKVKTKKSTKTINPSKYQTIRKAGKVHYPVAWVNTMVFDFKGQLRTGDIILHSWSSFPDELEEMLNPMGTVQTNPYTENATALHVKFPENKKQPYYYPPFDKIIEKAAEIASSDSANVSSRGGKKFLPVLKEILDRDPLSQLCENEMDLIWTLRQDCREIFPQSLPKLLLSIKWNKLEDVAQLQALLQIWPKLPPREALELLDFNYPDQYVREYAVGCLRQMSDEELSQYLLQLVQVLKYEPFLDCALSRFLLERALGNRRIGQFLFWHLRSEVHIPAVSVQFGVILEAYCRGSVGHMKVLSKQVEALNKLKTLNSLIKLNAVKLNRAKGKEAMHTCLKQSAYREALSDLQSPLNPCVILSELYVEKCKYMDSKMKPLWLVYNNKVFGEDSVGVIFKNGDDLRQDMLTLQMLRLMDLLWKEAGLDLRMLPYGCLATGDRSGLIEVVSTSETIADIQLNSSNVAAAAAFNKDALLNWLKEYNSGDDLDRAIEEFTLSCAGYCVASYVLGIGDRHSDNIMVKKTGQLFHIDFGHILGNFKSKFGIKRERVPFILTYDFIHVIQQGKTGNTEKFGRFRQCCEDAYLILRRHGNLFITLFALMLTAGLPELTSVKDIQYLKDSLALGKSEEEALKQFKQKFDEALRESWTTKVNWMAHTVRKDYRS

For the compound `CO[C@H]1C[C@@H]2CC[C@@H](C)[C@@](O)(O2)C(=O)C(=O)N2CCCC[C@H]2C(=O)O[C@H]([C@H](C)C[C@@H]2CC[C@@H](O)[C@H](OC)C2)CC(=O)[C@H](C)/C=C(\C)[C@@H](O)[C@@H](OC)C(=O)[C@H](C)C[C@H](C)/C=C/C=C/C=C/1C`, the result in the data set with SK-OV-3 [1], in the data set on A2058 [3], in the data set on A2058 [4], in the data set on SK-OV-3 [5], with A2058 [6] and with SK-OV-3 [7] was Active. In addition, in the data set on A2058 [8], the result was Active. For the same compound, the outcome in the data set with SK-OV-3 [2] was inactive.
As for `CCC(CC)n1cnc2c(-c3cnc(N)cn3)nc(N3CC4CCC(C3)O4)nc21`, the Kd in data set [9] is over 30 µM; in [10], 0.00085 µM; in data set [11], 20 µM; in data set [12] it was 8.3 µM; in data set [13], 22 µM; in [14], over 30 µM. Further, the dissociation constant Kd in data set [15] stood at 2.7 µM. The result in the data set with Mus musculus and in the data set with Rattus norvegicus was inactive. In addition, the concentration at 4 h in data set [16] was 170 ng/g. For the same compound, in [17], the Kp is 0.178.
